{
  "source": "patent US20070049564A1",
  "about": "(Wyeth, priority 2005, published 2007)",
  "key": {"E. coli GC 2231": {"tested_on": "E. coli GC 2231", "assay": "MIC, broth microdilution", "conditions": "Escherichia coli"}, "E. coli GC 2232": {"tested_on": "E. coli GC 2232", "assay": "MIC, broth microdilution", "conditions": "Escherichia coli"}, "E. coli GC 2272": {"tested_on": "E. coli GC 2272", "assay": "MIC, broth microdilution", "conditions": "Escherichia coli"}, "E. coli GC 4560": {"tested_on": "E. coli GC 4560", "assay": "MIC, broth microdilution", "conditions": "Escherichia coli"}, "E. coli GC 6465": {"tested_on": "E. coli GC 6465", "assay": "MIC, broth microdilution", "conditions": "Escherichia coli"}, "E. coli GC 3226": {"tested_on": "E. coli GC 3226", "assay": "MIC, broth microdilution", "conditions": "Escherichia coli"}, "E. coli GC 2203": {"tested_on": "E. coli GC 2203", "assay": "MIC, broth microdilution", "conditions": "Escherichia coli"}, "S. typhimurium GC 2172": {"tested_on": "S. typhimurium GC 2172", "assay": "MIC, broth microdilution", "conditions": "Salmonella enterica, TYPHIMURIUM"}, "S. aureus GC 6466": {"tested_on": "S. aureus GC 6466", "assay": "MIC, broth microdilution", "conditions": "Staphylococcus aureus"}, "S. aureus GC 6467": {"tested_on": "S. aureus GC 6467", "assay": "MIC, broth microdilution", "conditions": "Staphylococcus aureus"}, "S. aureus GC 4536": {"tested_on": "S. aureus GC 4536", "assay": "MIC, broth microdilution", "conditions": "Staphylococcus aureus", "description": "(§1) Antimicrobial susceptibility testing. The in vitro activities of the antibiotics are determined by the broth microdilution method as recommended by the National Committee for Clinical Laboratory Standards (NCCLS) (1). Mueller-Hinton II broth (MHBII)(BBL Cockeysville, Md.) is the medium employed in the testing procedures. Microtiter plates containing serial dilutions of each antimicrobial agent are inoculated with each organism to yield the appropriate density (10^5 CFU/ml) in a 100 μl final volume. The plates are incubated for 18-22 hours at 35° C. in ambient air.\n(§2) Representative compounds were first incubated in mouse serum for an hour prior to the in vitro testing against a panel of selected gram-positive and gram-negative bacteria strains. All compounds were also pre-incubated in water for an hour prior to testing as control. Representative compounds of Formula I were incubated in human serum prior to MIC determination."}, "S. aureus GC 6469": {"tested_on": "S. aureus GC 6469", "assay": "MIC, broth microdilution", "conditions": "Staphylococcus aureus"}, "E. faecalis GC 4555": {"tested_on": "E. faecalis GC 4555", "assay": "MIC, broth microdilution", "conditions": "Enterococcus faecalis", "description": "as §1, §2"}, "E. faecalis GC 2265": {"tested_on": "E. faecalis GC 2265", "assay": "MIC, broth microdilution", "conditions": "Enterococcus faecalis"}, "E. faecalis GC 2267": {"tested_on": "E. faecalis GC 2267", "assay": "MIC, broth microdilution", "conditions": "Enterococcus faecalis"}, "E. faecium GC 2243": {"tested_on": "E. faecium GC 2243", "assay": "MIC, broth microdilution", "conditions": "Enterococcus faecium"}, "S. pneumoniae* GC 4465": {"tested_on": "S. pneumoniae* GC 4465", "assay": "MIC, broth microdilution", "conditions": "Streptococcus pneumoniae"}, "S. agalactiae GC 4564": {"tested_on": "S. agalactiae GC 4564", "assay": "MIC, broth microdilution", "conditions": "Streptococcus agalactiae"}, "E. coli": {"tested_on": "E. coli", "assay": "Range of MIC for E. coli strains", "conditions": "Escherichia coli"}, "Staph.": {"tested_on": "Staph.", "assay": "Range of MIC for Staph. strains, including MRSA", "conditions": "Staphylococcus aureus"}},
  "note": "Where two headings read alike, the source gives them in different places.",
  "data": [
    {"smiles": "CCCCC(=O)OCOC(=O)N(CC(=O)Nc1cc(N(C)C)c2c(c1O)C(=O)C1=C(O)[C@]3(O)C(=O)C(C(N)=O)=C(O)[C@@H](N(C)C)[C@@H]3C[C@@H]1C2)C(C)(C)C", "note": "[Example 61, ({[(2-{[(5aR,6aS,7S,10aS)-9-(aminocarbonyl)-4,7-bis(dimethylamino)-1,8,10a,11-tetrahydroxy-10,12-dioxo-5,5a,6,6a,7,10,10a,12-octahydrotetracen-2-yl]amino}-2-oxoethyl)(tert-butyl)amino]carbonyl}oxy)methyl pentanoate]", "values": [
      {"measurement": "MIC", "setting": "E. coli GC 2231; GC2231, pre-incubation in human serum", "result": 8, "unit": "µg/mL"},
      {"measurement": "MIC", "setting": "E. coli GC 2231; GC2231, pre-incubation in mouse serum", "result": 1, "unit": "µg/mL"},
      {"measurement": "MIC", "setting": "E. coli GC 2231; GC2231, pre-incubation in water", "result": 32, "unit": "µg/mL"},
      {"measurement": "MIC", "setting": "E. coli GC 2232; GC2232, pre-incubation in human serum", "result": 4, "unit": "µg/mL"},
      {"measurement": "MIC", "setting": "E. coli GC 2232; GC2232, pre-incubation in mouse serum", "result": 0.5, "unit": "µg/mL"},
      {"measurement": "MIC", "setting": "E. coli GC 2232; GC2232, pre-incubation in water", "result": 16, "unit": "µg/mL"},
      {"measurement": "MIC", "setting": "E. coli GC 2272; GC2272, pre-incubation in human serum", "result": 4, "unit": "µg/mL"},
      {"measurement": "MIC", "setting": "E. coli GC 2272; GC2272, pre-incubation in mouse serum", "result": 0.5, "unit": "µg/mL"},
      {"measurement": "MIC", "setting": "E. coli GC 2272; GC2272, pre-incubation in water", "result": 8, "unit": "µg/mL"},
      {"measurement": "MIC", "setting": "E. coli GC 4560; GC4560, pre-incubation in human serum", "result": 1, "unit": "µg/mL"},
      {"measurement": "MIC", "setting": "E. coli GC 4560; GC4560, pre-incubation in mouse serum", "result": 0.25, "unit": "µg/mL"},
      {"measurement": "MIC", "setting": "E. coli GC 4560; GC4560, pre-incubation in water", "result": 1, "unit": "µg/mL"},
      {"measurement": "MIC", "setting": "E. coli GC 6465; GC6465, pre-incubation in human serum", "result": 32, "unit": "µg/mL"},
      {"measurement": "MIC", "setting": "E. coli GC 6465; GC6465, pre-incubation in mouse serum", "result": 1, "unit": "µg/mL"},
      {"measurement": "MIC", "setting": "E. coli GC 6465; GC6465, pre-incubation in water", "result": "> 64", "unit": "µg/mL"},
      {"measurement": "MIC", "setting": "E. coli GC 3226; GC3226, pre-incubation in human serum", "result": 8, "unit": "µg/mL"},
      {"measurement": "MIC", "setting": "E. coli GC 3226; GC3226, pre-incubation in mouse serum", "result": 0.5, "unit": "µg/mL"},
      {"measurement": "MIC", "setting": "E. coli GC 3226; GC3226, pre-incubation in water", "result": 32, "unit": "µg/mL"},
      {"measurement": "MIC", "setting": "E. coli GC 2203; GC2203, pre-incubation in human serum", "result": 8, "unit": "µg/mL"},
      {"measurement": "MIC", "setting": "E. coli GC 2203; GC2203, pre-incubation in mouse serum", "result": 0.5, "unit": "µg/mL"},
      {"measurement": "MIC", "setting": "E. coli GC 2203; GC2203, pre-incubation in water", "result": 32, "unit": "µg/mL"},
      {"measurement": "MIC", "setting": "S. typhimurium GC 2172; pre-incubation in human serum", "result": 64, "unit": "µg/mL"},
      {"measurement": "MIC", "setting": "S. typhimurium GC 2172; pre-incubation in mouse serum", "result": 1, "unit": "µg/mL"},
      {"measurement": "MIC", "setting": "S. typhimurium GC 2172; pre-incubation in water", "result": "> 64", "unit": "µg/mL"},
      {"measurement": "MIC", "setting": "S. aureus GC 6466; GC6466, pre-incubation in human serum", "result": 0.5, "unit": "µg/mL"},
      {"measurement": "MIC", "setting": "S. aureus GC 6466; GC6466, pre-incubation in mouse serum", "result": 0.5, "unit": "µg/mL"},
      {"measurement": "MIC", "setting": "S. aureus GC 6466; GC6466, pre-incubation in water", "result": 0.5, "unit": "µg/mL"},
      {"measurement": "MIC", "setting": "S. aureus GC 6467; GC6467, pre-incubation in human serum", "result": 0.5, "unit": "µg/mL"},
      {"measurement": "MIC", "setting": "S. aureus GC 6467; GC6467, pre-incubation in mouse serum", "result": 0.5, "unit": "µg/mL"},
      {"measurement": "MIC", "setting": "S. aureus GC 6467; GC6467, pre-incubation in water", "result": 1, "unit": "µg/mL"},
      {"measurement": "MIC", "setting": "S. aureus GC 4536; GC4536, pre-incubation in human serum", "result": 0.5, "unit": "µg/mL"},
      {"measurement": "MIC", "setting": "S. aureus GC 4536; GC4536, pre-incubation in mouse serum", "result": 0.5, "unit": "µg/mL"},
      {"measurement": "MIC", "setting": "S. aureus GC 4536; GC4536, pre-incubation in water", "result": 0.5, "unit": "µg/mL"},
      {"measurement": "MIC", "setting": "S. aureus GC 6469; GC6469, pre-incubation in human serum", "result": 0.5, "unit": "µg/mL"},
      {"measurement": "MIC", "setting": "S. aureus GC 6469; GC6469, pre-incubation in mouse serum", "result": 0.5, "unit": "µg/mL"},
      {"measurement": "MIC", "setting": "S. aureus GC 6469; GC6469, pre-incubation in water", "result": 2, "unit": "µg/mL"},
      {"measurement": "MIC", "setting": "E. faecalis GC 4555; GC4555, pre-incubation in human serum", "result": 2, "unit": "µg/mL"},
      {"measurement": "MIC", "setting": "E. faecalis GC 4555; GC4555, pre-incubation in mouse serum", "result": 1, "unit": "µg/mL"},
      {"measurement": "MIC", "setting": "E. faecalis GC 4555; GC4555, pre-incubation in water", "result": 2, "unit": "µg/mL"},
      {"measurement": "MIC", "setting": "E. faecalis GC 2265; GC2265, pre-incubation in human serum", "result": 2, "unit": "µg/mL"},
      {"measurement": "MIC", "setting": "E. faecalis GC 2265; GC2265, pre-incubation in mouse serum", "result": 0.5, "unit": "µg/mL"},
      {"measurement": "MIC", "setting": "E. faecalis GC 2265; GC2265, pre-incubation in water", "result": 2, "unit": "µg/mL"},
      {"measurement": "MIC", "setting": "E. faecalis GC 2267; GC2267, pre-incubation in human serum", "result": 2, "unit": "µg/mL"},
      {"measurement": "MIC", "setting": "E. faecalis GC 2267; GC2267, pre-incubation in mouse serum", "result": 0.5, "unit": "µg/mL"},
      {"measurement": "MIC", "setting": "E. faecalis GC 2267; GC2267, pre-incubation in water", "result": 2, "unit": "µg/mL"},
      {"measurement": "MIC", "setting": "E. faecium GC 2243; GC2243, pre-incubation in human serum", "result": 1, "unit": "µg/mL"},
      {"measurement": "MIC", "setting": "E. faecium GC 2243; GC2243, pre-incubation in mouse serum", "result": 0.25, "unit": "µg/mL"},
      {"measurement": "MIC", "setting": "E. faecium GC 2243; GC2243, pre-incubation in water", "result": 0.5, "unit": "µg/mL"},
      {"measurement": "MIC", "setting": "S. pneumoniae* GC 4465; pre-incubation in human serum", "result": 0.25, "unit": "µg/mL"},
      {"measurement": "MIC", "setting": "S. pneumoniae* GC 4465; pre-incubation in mouse serum", "result": 0.12, "unit": "µg/mL"},
      {"measurement": "MIC", "setting": "S. pneumoniae* GC 4465; pre-incubation in water", "result": 0.12, "unit": "µg/mL"},
      {"measurement": "MIC", "setting": "S. agalactiae GC 4564; GC4564, pre-incubation in human serum", "result": 0.5, "unit": "µg/mL"},
      {"measurement": "MIC", "setting": "S. agalactiae GC 4564; GC4564, pre-incubation in mouse serum", "result": 0.25, "unit": "µg/mL"},
      {"measurement": "MIC", "setting": "S. agalactiae GC 4564; GC4564, pre-incubation in water", "result": 0.25, "unit": "µg/mL"},
      {"measurement": "MIC", "setting": "E. coli; 20 h, read-out: Range of MIC, E. coli (Mouse Serum)", "result": "0.5 to 1", "unit": "µg/mL"},
      {"measurement": "MIC", "setting": "E. coli; read-out: Minimum inhibitory concentration (MIC), E. coli (Human Serum)", "result": "4 to 32", "unit": "µg/mL"},
      {"measurement": "MIC", "setting": "Staph.; MRSA, read-out: Range of MIC, Staph (Mouse Serum)", "result": "0.25 to 0.5", "unit": "µg/mL"},
      {"measurement": "MIC", "setting": "Staph.; MRSA, read-out: Range of MIC, Staph (Water)", "result": "0.5 to 2", "unit": "µg/mL"},
      {"measurement": "MIC", "setting": "Staph.; read-out: Minimum inhibitory concentration (MIC), Staph (Human Serum)", "result": "0.5 to 1", "unit": "µg/mL"},
      {"measurement": "MIC", "setting": "Staph.; read-out: Minimum inhibitory concentration (MIC), Staph (Water)", "result": "0.5 to 2", "unit": "µg/mL"}
    ]}
  ]
}
